# Entries after “also recorded” stand apart in the source; their conditions may differ. No end group written: not given here.
# Key:
# AtUFM1 = target: T1, AtUFM1 (Arabidopsis thaliana, UniProt Q9CA23); assay: Fluorescence anisotropy binding of TAMRA-labeled AtC53 IDR-derived peptides to AtUFM1
# T1 construct: made in house; host or cells: E. coli Rosetta2 (DE3) pLysS
# Method: (§1) For fluorescence anisotropy measurements, all peptides were in‐house synthetized and HPLC purified attached to 5(6)‐Carboxytetramethylrhodamine (TAMRA) to its N‐terminal. Binding affinities of ATG8A or AtUFM1 to TAMRA‐labeled peptides were measured by the change in fluorescence anisotropy in an FS5 Spectrofluorometer (Edinburgh Instruments) with excitation at 550 nm (slit width 5 nm) and emission at 580 nm (slit width 5 nm). […] Binding curves were fitted using Prism Software (GraphPad).
# ATG8A = target: T2, ATG8A (Arabidopsis thaliana, UniProt Q8LEM4); assay: Fluorescence anisotropy binding of TAMRA-labeled AtC53 IDR-derived peptides to ATG8A
# T2 construct: made in house; host or cells: E. coli Rosetta2 (DE3) pLysS
# Method: as §1
# HsUFM1 = assay: Native mass spectrometry (nMS) complex formation with HsUFM1; type: binding, Homo sapiens; settings: HsUFM1 5 μM, peptide 25 μM
# Method: Proteins were buffer exchanged into ammonium acetate using BioRad Micro Bio‐Spin 6 Columns. Native mass spectrometry experiments were carried out on a Synapt G2Si instrument (Waters, Manchester, UK) with a nanoelectrospray ionization source (nESI). Mass calibration was performed by a separate infusion of NaI cluster ions. Solutions were ionized from a thin‐walled borosilicate glass capillary (i.d. 0.78 mm, o.d. 1.0 mm, Sutter Instrument Co., Novato, CA, USA) pulled in‐house to nESI tip with a Flaming/Brown micropipette puller (Sutter Instrument Co., Novato, CA, USA). A potential of 0.8 kV was applied to the solution via a thin platinum wire (diameter 0.125 mm, Goodfellow, Huntingdon, UK). The following instrument parameters were used: capillary voltage 0.8 kV, sample cone voltage 40 V, source offset 60 V, source temperature 40°C, trap collision energy 4.0 V, and trap gas 3 ml/min. Data were processed using Masslynx V4.2 and OriginPro 2021.
# [1] = system: GST-GABARAP / mCh-HsC53 interaction; assay: On-bead competition of the GABARAP-HsC53 interaction; type: binding, human; settings: 1 μM HsC53; cAIM peptide 0-100 μM; 4 replicates
# Method: (§2) Glutathione‐Sepharose 4B bead slurry (Cytiva, average diameter 90 μm) was washed and diluted 10 times in HEPES buffer (25 mM HEPES pH 7.5, 150 mM NaCl, 1 mM DTT). The beads were then incubated for 30 min at 4°C (16 rpm horizontal rotation) with GST‐tagged bait proteins (2 μM of GST, GST‐FIP200 CD, GST‐ATG8A, GST‐GABARAP, GST‐AtUFM1, and GST‐HsUFM1). The beads were washed five times in 10 times the bead volume of HEPES buffer. The buffer was removed, and the beads were resuspended 1:20 in HEPES buffer. 10 μl of diluted beads was mixed with 20 μl of mCherry‐tagged binding partner at a concentration of 1.5 μM (0.5 μl bead slurry and 1 μM binding partner final concentrations) with or without competitor, as stated in the relative experiment. […]
# (§3) From images acquired from a Zeiss LSM700 confocal microscope, the quantification of fluorescence was performed in ImageJ (Schindelin et al, [2012]) by drawing a line across each bead and taking the maximum gray value along the line. The maximum gray value for any given pixel represents the fluorescence intensity.
# (§4) For images acquired from a Zeiss LSM800 confocal microscope, we used a custom Fiji Macro. […] In the end, the mean fluorescent intensities were exported out and used for quantification.
# (§5) For each method, the fluorescence intensity was normalized against the mean of the control condition.
# [2] = system: GST-HsUFM1 / mCh-HsC53 interaction; assay: On-bead competition of the HsUFM1-HsC53 interaction; type: binding, Homo sapiens; settings: 1 μM HsC53; cAIM peptide 0-100 μM; UBA5 LIR peptide or GABARAP 100 μM
# Method: as §2, §3, §4, §5
# [3] = system: GST-ATG8A / mCh-AtC53 interaction; assay: On-bead competition of the ATG8A-AtC53 interaction; type: binding, Arabidopsis thaliana; settings: 1 μM AtC53; cAIM peptide 0-100 μM; 2 independent replicates containing 2 technical replicates
# Method: as §2, §3, §4, §5
# [4] = system: GST-AtUFM1 / mCh-AtC53 interaction; assay: On-bead competition of the AtUFM1-AtC53 interaction; type: binding, Arabidopsis thaliana; settings: 1 μM AtC53; cAIM peptide 0-100 μM; 2 independent replicates containing 2 technical replicates
# Method: as §2, §3, §4, §5
# [5] = system: GST-GABARAP / MBP-C53 interaction; assay: In vitro GST pulldown competition of the GABARAP-C53 interaction; type: binding, human; settings: cAIM peptide 200 μM; immunoblot read-out
# Method: (§6) For pulldown experiments, 5 μl of glutathione magnetic agarose beads (Pierce Glutathione Magnetic Agarose Beads, Thermo Scientific) was equilibrated by washing them two times with wash buffer (100 mM Sodium Phosphate pH 7.2, 300 mM NaCl, 1 mM DTT, 0.01% (v/v) IGEPAL). Normalized E. coli clarified lysates or purified proteins were mixed, according to the experiment, added to the washed beads, and incubated on an end‐over‐end rotator for 1 h at 4°C. Beads were washed five times with 1 ml wash buffer. Bound proteins were eluted by adding 50 μl Laemmli buffer. Samples were analyzed by western blotting or Coomassie staining.
# [6] = system: GST-HsUFM1 / MBP-HsC53 interaction; assay: In vitro GST pulldown competition of the HsUFM1-HsC53 interaction; type: binding, Homo sapiens; settings: cAIM peptide 200 μM; immunoblot read-out
# Method: as §6
# T2 sequence (Q8LEM4 whole entry): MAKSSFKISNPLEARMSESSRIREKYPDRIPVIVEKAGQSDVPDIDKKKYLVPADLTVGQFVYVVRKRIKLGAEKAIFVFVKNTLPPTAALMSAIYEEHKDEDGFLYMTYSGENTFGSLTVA
# T1 sequence (Q9CA23 whole entry): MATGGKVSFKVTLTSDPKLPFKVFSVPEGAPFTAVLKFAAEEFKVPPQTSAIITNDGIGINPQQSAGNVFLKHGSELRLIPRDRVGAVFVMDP
sequence,measurement,setting,value
"AADSIDADITVET [sAIM mut, sAIM mutant peptide where the tryptophan was mutated to alanine]",Behaviour in fluorescence anisotropy titration with UFM1 (in words),"AtUFM1; 50 nM TAMRA-labeled peptide, up to 320 μM AtUFM1",did not show any change
same,Behaviour in fluorescence anisotropy titration with ATG8 (in words),"ATG8A; 50 nM TAMRA-labeled peptide, up to 320 μM ATG8A",did not show any change
"AADSIDWDITVETPEIDWDVSMVEEV [sAIM1,2]",Kd,AtUFM1,148 µM
AADSWDDIITVET [cAIM mut],Kd,ATG8A,94.3 µM
DVSEISWDVSVET [sAIM3],Kd,ATG8A,176 µM
EPLDFDWEIVLEEEM [cAIM peptide],Complex formation with HsUFM1 by nMS (in words),HsUFM1,did not appreciably interact; also recorded: negligible amount of 1:1 complex
same,Competition of the HsC53-GABARAP interaction (in words),[1],outcompeted
same,Competition of the HsC53-HsUFM1 interaction (in words),[2],could not outcompete
same,Competition of the AtC53-ATG8A interaction (in words),[3],outcompeted
same,Competition of the AtC53-AtUFM1 interaction (in words),[4],could not outcompete
same,Competition of the GABARAP-C53 interaction in pulldown (in words),[5],outcompeted
same,Competition of the HsUFM1-HsC53 interaction in pulldown (in words),[6],cannot outcompete
GPLHDDNEWNISVVDD [UBA5 LIR peptide],Complex formation with HsUFM1 by nMS (in words),HsUFM1,forms a 1:1 complex
same,Competition of the HsC53-HsUFM1 interaction (in words),[2],able to disrupt
